Measurements: patent US20200317813A1, “TREATMENT AND DIAGNOSIS OF NON-PROLIFERATIVE DIABETIC RETINOPATHY” (Johann Wolfgang Goethe-Universitat Frankfurt am Main, priority 2016, published 2020)

Tests used:
[1] = tested on: retinas from wild-type and Ins2Akita mice; assay: Retinal growth factor and Notch gene expression in mice treated with sEH inhibitor; type: in vivo, mouse
Experimental: Total RNA from retinas was extracted using an RNeasy kit (QIAGEN, Hilden, Germany), and equal amounts (1 μg) of total RNA was reverse transcribed (Superscript III; Invitrogen). Gene expression levels were detected using SYBR Green (Absolute QPCR SYBR Green Mix; Thermo Fisher Scientifc). The relative expression levels of the different genes studied was calculated using the 2^−ΔΔCt method with the 18S RNA as a reference.

[2] = tested on: Ins2Akita mice; conditions: mouse, in vivo
[3] = molecular target: T1, sEH (Homo sapiens, UniProt P34913); conditions: cited from earlier work
T1 sequence (P34913 1-555): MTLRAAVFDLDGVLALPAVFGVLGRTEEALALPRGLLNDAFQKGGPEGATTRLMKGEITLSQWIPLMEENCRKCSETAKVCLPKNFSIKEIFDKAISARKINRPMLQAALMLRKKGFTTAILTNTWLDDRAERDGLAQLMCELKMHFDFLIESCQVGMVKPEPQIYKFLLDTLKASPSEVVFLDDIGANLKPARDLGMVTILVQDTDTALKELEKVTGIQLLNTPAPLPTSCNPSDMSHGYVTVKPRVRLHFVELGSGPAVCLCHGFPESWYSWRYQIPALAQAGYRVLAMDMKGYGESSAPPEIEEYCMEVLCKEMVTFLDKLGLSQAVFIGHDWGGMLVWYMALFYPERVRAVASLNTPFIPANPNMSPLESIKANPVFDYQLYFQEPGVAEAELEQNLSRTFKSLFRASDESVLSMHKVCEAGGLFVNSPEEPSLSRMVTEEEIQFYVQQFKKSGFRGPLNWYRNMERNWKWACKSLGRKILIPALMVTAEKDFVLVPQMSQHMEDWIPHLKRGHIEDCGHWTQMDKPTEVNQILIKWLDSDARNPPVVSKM

[4] = tested on: endothelial cell-pericyte co-cultures; assay: Endothelial cell-pericyte co-culture: cadherin expression, lipid rafts, immunoprecipitation; type: cell-based, human; conditions: for N-cadherin expression in cocultured cells: 19,20-EDP/19,20-DHDP 3 μmol/L, VEGF 20 ng/ml; for N-cadherin expression in cocultured cells / association (co-precipitation) of PS1 with N-cadherin and VE-cadherin / association of p120 catenin with N- or VE-cadherin: 24 hours; for lipid raft association and membrane presentation of N-cadherin: endothelial cell-pericyte cocultures; for association (co-precipitation) of PS1 with N-cadherin and VE-cadherin / association of p120 catenin with N- or VE-cadherin: immunoprecipitation from co-cultures
Experimental: Human umbilical vein endothelial cells were cultured on fibronectin coated dishes until confluent. Then pericytes were seeded on top of the endothelial cells (PC:EC=1:5) and cocultured for a further 3 days. […] Cells were then lysed with HEPES buffer: 25 mmol/L HEPES pH 7.4, 150 mmol/L NaCl, complete protease inhibitor cocktail (Roche), and 1% digitonin (Sigma). Following centrifugation at 17,000 g for 10 minutes, supernatants (1 mg of protein) were pre-cleaned with protein A/G agarose (Pierce) for 30 mins. Supernatants were then incubated with anti-VE-cadherin (1:1000, AF1002 R&D systems, Abingdon, UK) or N-cadherin (1:1000, 33-3900 life technologies, CA, USA) antibodies at 4° C. for 2 hours and then treated with protein A/G agarose for a further 2 hours. Samples were washed with lysis buffer and analyzed by SDS-PAGE.
Samples were separated by SDS-PAGE and subjected to Western blotting as described^41. Membranes were blocked in 3% BSA in PBS, incubated with primary and horseradish peroxidase-conjugated secondary antibodies in blocking solution, and detection was performed with a Lumi-Light plus western blotting substrate (Roche).
Lipid rafts were isolated as described with modifications^42. Briefly, cells were harvested by scraping and homogenized at 4° C. in sodium carbonate (0.5 mol/L, pH11) using a glass homogenizer, followed by sonication. Then, equal amounts of protein were adjusted to a final sucrose concentration of 45% (final volume, 4 mL) and transferred to 12 mL ultracentrifuge tubes. A discontinuous sucrose gradient was then formed by sequentially overlaying 4 mL of 35% and 4 ml, of 5% sucrose. Samples were subjected to ultracentrifugation (35,000 rpm, 4° C. for 20 hours) using a Beckman SW 41 rotor (Krefeld, Germany). After centrifugation, twelve 1 mL fractions were collected using a capillary tube connected to a peristaltic pump, and equal volumes of each faction were analyzed by SDS-PAGE using antibodies against flotillin 1 (1:2000, 610820 BD Biosciences, Heidelberg, Germany), VE-cadherin (1:1000, sc-28644 Santa Cruz, Darmstadt, Germany) and N-cadherin (1:1000, 33-3900 lifetechnologies, CA, USA).

[5] = tested on: human endothelial cells; assay: VE-cadherin staining and internalization in cultured endothelial cells; type: cell-based; conditions: 3 hours; for internalization of VE-cadherin: in the presence of t-AUCB (10 μmol/L), pre-labelled antibody and immunoprecipitation
Experimental: Cells were fixed with 4% PFA for 10 min at room temperature. After washing with PBS samples were blocked and permeabilized with 1% BSA, 5% horse serum, 0.5% Triton X-100 at room temperature for 2 hours or at 4° C. overnight before being exposed to primary antibody (4° C., overnight). After extensive washing and exposure to Alexa Fluor-coupled secondary antibody (1:200, 2 hours, room temperature) samples were mounted in fluorescent mounting medium and analyzed with a confocal microscope; Leica SP8 confocal microscope and LASX software (Wetzlar, Germany) or Carl Zeiss LSM-780 and ZEN software (Jena, Germany) as described^6′^32.
(§1) VE-cadherin internalization was determined as described^40. Endothelial cells were cultured on culture slides (BD, Heidelberg, Germany) coated with crosslinked gelatin until confluent and starved with 2% FCS overnight. Cells were then incubated with antibody against extracellular domain of human VE-cadherin (clone BV6, ALX-803-305 Enzo Life Sciences, Lörrach, Germany) at 4° C. for 1 hour in MCDB131 with 1% BSA medium. Unbound antibody was removed by rinsing cells with ice-cold MCDB131 medium. […] To block the degradation of internalized VE-cadherin chloroquine (300 μmol/L) was be added to the incubation medium. To assess internalized endogenous VE-cadherin cells were washed with ice-cold acid wash buffer (Hanks buffer, pH=2.7, containing 25 mmol/L glycine and 1% BSA) to assess total VE-cadherin cells were rinsed with ice-cold neutral washing buffer (Hanks buffer with 1% BSA, pH=7.4). Cells were fixed with 4% PFA for 15 minutes at 4° C. and then processed for immunofluorescence. […] Samples were imaged with an SP8 confocal microscope (Leica) and internalized particles were quantified using ImageJ (NIH) software.
Confluent cultures of human endothelial cells were incubated with antibodies recognizing the extracellular domains of human VE-cadherin (BV6 antibody) at 4° C. […] Samples were washed with lysis buffer and analyzed by SDS-PAGE.

[6] = tested on: pericytes; assay: N-cadherin internalization assay; type: cell-based, human; conditions: 3 μmol/L, 3 hours (not shown)
Experimental: as §1, with “immunofluorescence. To assess N-cadherin internalization, pericytes were incubated with an antibody against the extracellular domain of human N-cadherin (clone 8C11, 350802 BioLegend, CA. USA) at 4° C. for 1 hour in DMEM containing 1% BSA.” for “immunofluorescence.”

[7] = tested on: pericytes; assay: In vitro pericyte migration on endothelial cell monolayer; type: cell-based, human; conditions: 3 μmol/L
Experimental: Human umbilical vein endothelial cells were isolated and cultured as described^37, seeded on μ-slides (ibidi, Martinsried, Germany) and grown to confluence. Pericytes were labeled with cell tracker green (Invitrogen) and added to the endothelial cell monolayer. Cells were treated with either solvent (0.03% DMSO), 19,20-EDP (3 μmol/L), 19,20-DHDP (3 μmol/L). Cells were incubated in an IncuCyte imaging system (Essen Bioscience) that took photographs automatically every 15 minutes for 48 hours. Pericyte movement on top of the endothelial cell monolayer were tracked manually and analyzed with Image J (NIH, Bethesda, Md., USA). In some experiments pericytes were treated with small interfering RNA directed against N-cadherin (sc-29403, Santa Cruz). Transfection was performed with lipofectamine 2000 (Invitrogen) following the manufacturer's instructions and a scrambled control siRNA was used as control.

[8] = molecular target: γ-secretase (Homo sapiens, UniProt P49768); conditions: by redistribution of PS1 out of lipid rafts, retina; cited from earlier work
[9] = tested on: retinas from 7 month old wild-type mice; assay: Retinal explants, ex vivo retina whole mount model; type: cell-based, mouse; conditions: ex vivo organ culture, 4 day period, 5 μmol/L
Experimental: Eyes from 7 months old animals were enucleated and immersed in ice-cold HBSS containing penicillin (100 U/mL) and streptomycin (100 μg/mL). Retinas were carefully dissected under stereomicroscope and divided into four quadrants with four deep radial incisions. The explants were transferred onto tissue culture inserts (0.4 μm pore, Millipore; Cork, Ireland) with the retinal ganglion cell side facing up. The inserts were placed into the wells of a 6-well plate. A serum free retinal explant media (Neurobasal A, Invitrogen) supplemented with 2% B27 (Invitrogen), 1% N2 (Invitrogen), L-glutamine (0.8 mmol/L), penicillin (100 U/mL), and streptomycin (100 μg/mL) were added to the bottle of the wells and 3 μL of media was dropped on top of the retina to keep it moist. […] After 4 days, retinas were fixed and processed as described above.

[10] = tested on: murine brain microvascular endothelial cells; assay: Transendothelial electrical resistance (TEER); type: cell-based, mouse; conditions: 19,20-EDP/19,20-DHDP 3 μmol/L, VEGF 20 ng/ml, 24 hours
Experimental: Impedance measurements were performed using isolated murine brain microvascular endothelial cells with a cellZscope device (nano-Analytics) as described^38. […] Measurements were performed four times in quadruplicate with endothelial cells from four different cell preparations.

Row | Compound | N-cadherin expression in cocultured cells [4] | lipid raft association and membrane presentation of N-cadherin [4] | association (co-precipitation) of PS1 with N-cadherin and VE-cadherin [4] | association of p120 catenin with N- or VE-cadherin [4] | internalization of VE-cadherin [5] | N-cadherin internalization [6] | capillary pericyte loss and pericyte migration [9] | transendothelial electrical resistance [10] | other results
1 | O=C(NC12CC3CC(CC(C3)C1)C2)N[C@H]1CC[C@H](Oc2ccc(C(=O)O)cc2)CC1 (relative stereo) [t-AUCB, trans-4-[4-(3-adamantan-1-ylureido)cyclohexyloxy]-benzoic acid] | – | – | – | – | – | – | – | – | Hey1 and Jagged 1 expression [1]: tend to increase; PDFG receptor β levels in retinas [1]: failed to significantly alter; PDGFB expression in retinas [1]: increased; N-cadherin expression in retinas [2]: largely maintained; co-localization of VE-cadherin and N-cadherin with PS1 in retinas [2]: maintained; loss of desmin positive cells in retinas [2]: prevented
2 | CCCCCCCCCCCCNC(=O)NC12CC3CC(CC(C3)C1)C2 [ADU, N-Adamantyl-N′-dodecyl urea] | – | – | – | – | – | – | – | – | activity on sEH [3]: particularly high activity
3 | 19,20-dihydroxydocosapentaenoic acid [19,20-DHDP] | decreased | disrupt | attenuated | did not influence | detected | induce | induced | decreased | VE-cadherin staining of confluent endothelial cells ([5]; 3 μmol/L): discontinuous; pericyte motility [7]: increase; γ-secretase activity [8]: inhibit
4 | VEGF | without effect | – | attenuated | decreased recovery | – | – | – | alterations induced by 19,20-DHDP were however less pronounced than those elicited by vascular endothelial cell growth factor | –
5 | CCC1OC1CC=CCC=CCC=CCC=CCC=CCCC(=O)O (stereo not shown) [19,20-EDP, 19,20 epoxydocosapentaenoic acid] | without effect | not | without effect | – | not | not | largely ineffective | – | –
